Reference: article PMC9492542, “Brain-restricted mTOR inhibition with binary pharmacology” (Nature, 2022)
Like-named read-outs stand apart in the source and are kept apart here.

Experiments:
476 purified kinases [1] = target: 476 purified kinases (Homo sapiens, UniProt O00141); details: ZLYTE
Procedure: (§1) In vitro kinase inhibition assays were performed by SelectScreen Services (Thermo Fisher Scientific) using either Z’-LYTE (mTOR, Src, Csk, EGFR, HER2 and HGK), Adapta (LRRK2) or LanthaScreen (DDR2) assay format (standardized protocols can be accessed on the SelectScreen website: https://www.thermofisher.com/us/en/home/products-and-services/services/custom-services/screening-and-profiling-services/selectscreen-profiling-service/selectscreen-kinase-profiling-service.html. When indicated, recombinant FKBP12 protein was added to the assay mixture to a final concentration of 10 µM.

476 purified kinases [2] = target: 476 purified kinases (Homo sapiens, UniProt O00238)
Procedure: as §1

476 purified kinases [3] = target: 476 purified kinases (Homo sapiens, UniProt O15075); details: ZLYTE
Procedure: as §1

476 purified kinases [4] = target: 476 purified kinases (Homo sapiens, UniProt P06241); details: ZLYTE
Procedure: as §1

476 purified kinases [5] = target: 476 purified kinases (Homo sapiens, UniProt P24941); details: for CDK2/cyclin A (kinase profiling): ZLYTE
Procedure: as §1

476 purified kinases [6] = target: 476 purified kinases (Homo sapiens, UniProt P25098); details: ZLYTE
Procedure: as §1

476 purified kinases [7] = target: 476 purified kinases (Homo sapiens, UniProt P45985)
Procedure: as §1

476 purified kinases [8] = target: 476 purified kinases (Homo sapiens, UniProt P51617); details: Adapta
Procedure: as §1

476 purified kinases [9] = target: T1, 476 purified kinases (Homo sapiens, UniProt P52564); details: for MAP2K6 (MKK6) (kinase profiling): ZLYTE
T1 sequence (P52564 1-334): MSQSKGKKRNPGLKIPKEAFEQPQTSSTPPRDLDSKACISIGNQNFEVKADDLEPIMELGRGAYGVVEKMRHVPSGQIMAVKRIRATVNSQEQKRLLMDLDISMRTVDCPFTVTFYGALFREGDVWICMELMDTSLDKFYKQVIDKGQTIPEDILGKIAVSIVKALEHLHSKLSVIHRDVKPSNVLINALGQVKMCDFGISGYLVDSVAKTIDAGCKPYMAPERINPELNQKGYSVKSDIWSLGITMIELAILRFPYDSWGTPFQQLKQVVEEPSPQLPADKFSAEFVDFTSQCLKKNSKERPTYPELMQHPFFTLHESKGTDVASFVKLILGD
Procedure: as §1

476 purified kinases [10] = target: 476 purified kinases (Homo sapiens, UniProt P52564, S207E/T211E)
Procedure: as §1

476 purified kinases [11] = target: 476 purified kinases (Homo sapiens, UniProt P57058)
Procedure: as §1

476 purified kinases [12] = target: 476 purified kinases (Homo sapiens, UniProt Q00534); details: Adapta
Procedure: as §1

476 purified kinases [13] = target: 476 purified kinases (Homo sapiens, UniProt Q13164); details: ZLYTE
Procedure: as §1

476 purified kinases [14] = target: 476 purified kinases (Homo sapiens, UniProt Q13554); details: ZLYTE
Procedure: as §1

476 purified kinases [15] = target: 476 purified kinases (Homo sapiens, UniProt Q13555)
Procedure: as §1

476 purified kinases [16] = target: 476 purified kinases (Homo sapiens, UniProt Q14012); details: Adapta
Procedure: as §1

476 purified kinases [17] = target: 476 purified kinases (Homo sapiens, UniProt Q52WX2); details: ZLYTE
Procedure: as §1

476 purified kinases [18] = target: 476 purified kinases (Homo sapiens, UniProt Q6DT37); details: ZLYTE
Procedure: as §1

476 purified kinases [19] = target: 476 purified kinases (Homo sapiens, UniProt Q7L7X3)
Procedure: as §1

476 purified kinases [20] = target: 476 purified kinases (Homo sapiens, UniProt Q8NI60)
Procedure: as §1

476 purified kinases [21] = target: 476 purified kinases (Homo sapiens, UniProt Q8WTQ7); details: ZLYTE
Procedure: as §1

476 purified kinases [22] = target: 476 purified kinases (Homo sapiens, UniProt Q96NX5); details: ZLYTE
Procedure: as §1

476 purified kinases [23] = target: 476 purified kinases (Homo sapiens, UniProt Q99759)
Procedure: as §1

476 purified kinases [24] = target: 476 purified kinases (Homo sapiens, UniProt Q9H093)
Procedure: as §1

476 purified kinases [25] = target: 476 purified kinases (Homo sapiens, UniProt Q9NR20); details: ZLYTE
Procedure: as §1

476 purified kinases [26] = target: 476 purified kinases (Homo sapiens, UniProt Q9NY57)
Procedure: as §1

476 purified kinases [27] = target: 476 purified kinases (Homo sapiens, UniProt Q9UEE5)
Procedure: as §1

476 purified kinases [28] = target: 476 purified kinases (Homo sapiens, UniProt Q9UEW8)
Procedure: as §1

476 purified kinases [29] = target: 476 purified kinases (Homo sapiens, UniProt Q9Y3S1)
Procedure: as §1

476 purified kinases [30] = target: 476 purified kinases (Homo sapiens, UniProt Q9Y6E0); details: ZLYTE
Sequence of 476 purified kinases (Homo sapiens, UniProt Q9Y6E0) (Q9Y6E0 whole entry): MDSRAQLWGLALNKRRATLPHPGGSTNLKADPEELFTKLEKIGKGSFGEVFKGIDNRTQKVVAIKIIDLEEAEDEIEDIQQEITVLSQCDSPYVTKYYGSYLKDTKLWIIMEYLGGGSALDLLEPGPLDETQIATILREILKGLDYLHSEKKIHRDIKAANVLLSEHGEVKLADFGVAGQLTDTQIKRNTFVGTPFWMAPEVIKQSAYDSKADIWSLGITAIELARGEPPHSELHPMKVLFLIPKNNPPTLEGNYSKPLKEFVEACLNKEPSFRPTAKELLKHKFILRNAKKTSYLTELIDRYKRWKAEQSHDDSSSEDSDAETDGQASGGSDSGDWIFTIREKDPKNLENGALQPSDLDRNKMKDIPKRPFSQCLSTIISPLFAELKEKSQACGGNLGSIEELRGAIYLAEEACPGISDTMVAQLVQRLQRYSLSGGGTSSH
Procedure: as §1

Sequence of 476 purified kinases (Homo sapiens, UniProt P51617) (P51617 whole entry): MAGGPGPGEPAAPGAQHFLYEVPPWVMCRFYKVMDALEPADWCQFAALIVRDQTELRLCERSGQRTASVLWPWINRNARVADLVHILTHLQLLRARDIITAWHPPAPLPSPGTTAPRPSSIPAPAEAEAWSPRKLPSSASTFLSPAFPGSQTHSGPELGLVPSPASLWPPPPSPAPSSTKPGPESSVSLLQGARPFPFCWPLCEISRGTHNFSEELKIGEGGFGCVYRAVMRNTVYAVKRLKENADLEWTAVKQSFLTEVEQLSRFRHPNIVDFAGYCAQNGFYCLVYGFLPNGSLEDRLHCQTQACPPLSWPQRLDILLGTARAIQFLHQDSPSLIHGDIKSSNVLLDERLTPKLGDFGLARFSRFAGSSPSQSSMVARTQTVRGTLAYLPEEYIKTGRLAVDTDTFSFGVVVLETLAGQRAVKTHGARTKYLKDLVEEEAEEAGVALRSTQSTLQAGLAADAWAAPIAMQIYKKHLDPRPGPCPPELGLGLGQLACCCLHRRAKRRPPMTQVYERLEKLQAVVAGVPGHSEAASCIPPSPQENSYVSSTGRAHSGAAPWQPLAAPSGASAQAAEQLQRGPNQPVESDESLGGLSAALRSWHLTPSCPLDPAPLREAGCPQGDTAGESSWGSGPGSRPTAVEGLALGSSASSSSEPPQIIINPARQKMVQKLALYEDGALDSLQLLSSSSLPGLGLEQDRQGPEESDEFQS
Sequence of 476 purified kinases (Homo sapiens, UniProt Q13164) (Q13164 whole entry): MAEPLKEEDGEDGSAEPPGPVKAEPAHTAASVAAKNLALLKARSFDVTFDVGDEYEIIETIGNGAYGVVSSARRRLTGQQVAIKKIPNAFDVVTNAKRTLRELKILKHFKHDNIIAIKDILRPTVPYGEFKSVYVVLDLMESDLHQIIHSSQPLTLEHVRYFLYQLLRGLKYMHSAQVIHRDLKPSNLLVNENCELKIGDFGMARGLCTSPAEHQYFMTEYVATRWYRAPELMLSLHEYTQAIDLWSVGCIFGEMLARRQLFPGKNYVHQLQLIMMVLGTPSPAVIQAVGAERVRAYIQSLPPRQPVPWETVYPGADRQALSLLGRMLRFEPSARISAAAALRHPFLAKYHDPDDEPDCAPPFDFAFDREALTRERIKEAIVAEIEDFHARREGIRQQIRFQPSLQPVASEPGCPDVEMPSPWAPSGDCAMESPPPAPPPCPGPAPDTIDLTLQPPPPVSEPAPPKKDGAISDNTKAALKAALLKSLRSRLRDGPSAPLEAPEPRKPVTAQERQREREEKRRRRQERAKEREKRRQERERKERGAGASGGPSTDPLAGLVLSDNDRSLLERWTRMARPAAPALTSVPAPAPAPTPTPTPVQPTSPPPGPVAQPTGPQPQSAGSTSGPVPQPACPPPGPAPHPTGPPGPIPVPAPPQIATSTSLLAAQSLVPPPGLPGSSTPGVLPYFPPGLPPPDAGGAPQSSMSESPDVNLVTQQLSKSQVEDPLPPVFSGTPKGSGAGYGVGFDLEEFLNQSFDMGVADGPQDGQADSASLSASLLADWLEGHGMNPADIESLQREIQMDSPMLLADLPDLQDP
Sequence of 476 purified kinases (Homo sapiens, UniProt Q6DT37) (Q6DT37 whole entry): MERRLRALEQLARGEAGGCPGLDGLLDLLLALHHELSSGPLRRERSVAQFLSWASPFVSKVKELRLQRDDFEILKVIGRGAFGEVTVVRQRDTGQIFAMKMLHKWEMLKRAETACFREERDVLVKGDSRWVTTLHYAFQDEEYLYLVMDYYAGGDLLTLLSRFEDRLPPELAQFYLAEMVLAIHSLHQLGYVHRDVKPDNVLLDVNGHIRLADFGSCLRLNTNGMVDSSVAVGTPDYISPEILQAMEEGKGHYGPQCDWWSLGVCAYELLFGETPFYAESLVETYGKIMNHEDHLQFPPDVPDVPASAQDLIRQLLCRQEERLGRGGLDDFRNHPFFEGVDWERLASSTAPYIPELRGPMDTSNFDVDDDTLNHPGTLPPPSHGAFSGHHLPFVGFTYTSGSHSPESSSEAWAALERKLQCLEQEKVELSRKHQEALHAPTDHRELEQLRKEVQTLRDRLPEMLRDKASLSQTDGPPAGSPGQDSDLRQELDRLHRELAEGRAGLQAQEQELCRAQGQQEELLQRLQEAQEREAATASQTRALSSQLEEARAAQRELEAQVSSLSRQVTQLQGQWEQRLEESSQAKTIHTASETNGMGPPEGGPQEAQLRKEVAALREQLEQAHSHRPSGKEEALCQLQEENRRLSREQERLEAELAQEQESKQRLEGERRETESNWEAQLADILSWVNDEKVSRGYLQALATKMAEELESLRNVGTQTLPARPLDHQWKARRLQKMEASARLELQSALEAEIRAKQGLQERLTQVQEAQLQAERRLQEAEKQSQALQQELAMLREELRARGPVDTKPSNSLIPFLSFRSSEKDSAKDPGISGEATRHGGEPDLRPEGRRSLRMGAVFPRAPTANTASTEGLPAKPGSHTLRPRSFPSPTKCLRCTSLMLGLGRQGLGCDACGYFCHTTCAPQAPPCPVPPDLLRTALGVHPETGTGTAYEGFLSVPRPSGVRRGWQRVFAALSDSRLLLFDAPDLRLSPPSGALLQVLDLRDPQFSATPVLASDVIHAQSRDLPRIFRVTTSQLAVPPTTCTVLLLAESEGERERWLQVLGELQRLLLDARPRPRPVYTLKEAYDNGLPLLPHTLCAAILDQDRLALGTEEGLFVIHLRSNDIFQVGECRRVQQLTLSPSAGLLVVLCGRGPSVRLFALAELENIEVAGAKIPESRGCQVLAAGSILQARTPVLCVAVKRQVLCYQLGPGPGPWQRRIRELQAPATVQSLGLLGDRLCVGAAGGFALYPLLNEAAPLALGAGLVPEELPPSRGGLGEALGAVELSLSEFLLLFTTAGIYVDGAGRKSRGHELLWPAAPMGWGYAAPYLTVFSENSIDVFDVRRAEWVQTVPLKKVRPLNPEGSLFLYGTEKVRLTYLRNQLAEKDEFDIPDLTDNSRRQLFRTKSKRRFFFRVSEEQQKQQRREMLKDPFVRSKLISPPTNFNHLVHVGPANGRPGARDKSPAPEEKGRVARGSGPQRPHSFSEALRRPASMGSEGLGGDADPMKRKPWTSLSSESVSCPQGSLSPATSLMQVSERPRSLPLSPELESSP
Sequence of 476 purified kinases (Homo sapiens, UniProt O15075) (O15075 whole entry): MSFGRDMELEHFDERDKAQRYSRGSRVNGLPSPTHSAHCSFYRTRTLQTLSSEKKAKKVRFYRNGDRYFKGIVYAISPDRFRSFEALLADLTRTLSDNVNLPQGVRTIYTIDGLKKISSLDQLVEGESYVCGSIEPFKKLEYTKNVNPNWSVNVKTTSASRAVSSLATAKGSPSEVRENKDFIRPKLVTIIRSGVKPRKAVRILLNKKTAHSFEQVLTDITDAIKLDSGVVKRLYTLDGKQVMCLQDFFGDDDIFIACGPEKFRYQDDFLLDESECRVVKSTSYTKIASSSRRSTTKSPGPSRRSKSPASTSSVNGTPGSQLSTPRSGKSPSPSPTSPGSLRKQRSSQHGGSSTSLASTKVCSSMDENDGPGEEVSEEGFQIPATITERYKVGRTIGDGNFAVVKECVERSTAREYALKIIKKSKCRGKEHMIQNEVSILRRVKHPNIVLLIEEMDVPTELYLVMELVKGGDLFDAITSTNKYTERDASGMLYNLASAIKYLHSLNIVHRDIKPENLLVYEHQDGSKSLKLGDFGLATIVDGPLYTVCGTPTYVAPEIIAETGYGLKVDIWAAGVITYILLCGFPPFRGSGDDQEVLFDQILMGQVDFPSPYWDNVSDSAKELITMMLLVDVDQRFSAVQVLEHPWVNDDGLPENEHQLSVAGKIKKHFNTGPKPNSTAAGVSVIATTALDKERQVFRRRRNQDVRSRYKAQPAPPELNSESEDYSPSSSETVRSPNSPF
Sequence of 476 purified kinases (Homo sapiens, UniProt Q00534) (Q00534 whole entry): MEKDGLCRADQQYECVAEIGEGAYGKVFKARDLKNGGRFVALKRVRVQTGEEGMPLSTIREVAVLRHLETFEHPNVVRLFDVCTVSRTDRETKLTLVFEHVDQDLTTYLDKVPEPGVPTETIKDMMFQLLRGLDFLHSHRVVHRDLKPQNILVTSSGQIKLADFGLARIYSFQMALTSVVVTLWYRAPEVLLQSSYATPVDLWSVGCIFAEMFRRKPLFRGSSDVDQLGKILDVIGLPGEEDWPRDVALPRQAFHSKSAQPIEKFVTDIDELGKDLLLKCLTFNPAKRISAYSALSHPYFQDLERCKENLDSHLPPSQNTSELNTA
Sequence of 476 purified kinases (Homo sapiens, UniProt P45985) (P45985 whole entry): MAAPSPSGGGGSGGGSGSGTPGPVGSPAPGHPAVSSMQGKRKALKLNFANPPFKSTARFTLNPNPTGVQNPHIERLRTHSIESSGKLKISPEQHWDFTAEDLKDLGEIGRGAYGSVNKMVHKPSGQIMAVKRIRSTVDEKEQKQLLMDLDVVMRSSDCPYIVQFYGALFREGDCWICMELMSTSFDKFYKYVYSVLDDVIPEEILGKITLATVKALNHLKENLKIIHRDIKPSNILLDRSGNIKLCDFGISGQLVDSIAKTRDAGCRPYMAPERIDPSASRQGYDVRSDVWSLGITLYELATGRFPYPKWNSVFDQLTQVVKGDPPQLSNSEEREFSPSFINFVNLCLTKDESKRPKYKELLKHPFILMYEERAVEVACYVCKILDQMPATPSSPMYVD

SMILES: Cc1nc(Nc2ncc(C(=O)Nc3c(C)cccc3Cl)s2)cc(N2CCN(CCO)CC2)n1 [Dasatinib]
- SGK (SGK1) (kinase profiling) (476 purified kinases [1]; 10 nM): 2
- SGK (SGK1) (kinase profiling) (476 purified kinases [1]; 10 nM + 10 µM FKBP12): 2
- BMPR1B (ALK6) (LanthaScreen Binding) (476 purified kinases [2]; 10 nM compound): 7
- BMPR1B (ALK6) (LanthaScreen Binding) (476 purified kinases [2]; 10 nM compound + 10 µM FKBP12): -9
- DCAMKL1 (DCLK1) (kinase profiling) (476 purified kinases [3]; 10 nM): 1
- DCAMKL1 (DCLK1) (kinase profiling) (476 purified kinases [3]; 10 nM + 10 µM FKBP12): 4
- FYN (kinase profiling) (476 purified kinases [4]; 10 nM): 100
- FYN (kinase profiling) (476 purified kinases [4]; 10 nM + 10 µM FKBP12): 101
- CDK2/cyclin A1 (LanthaScreen Binding) (476 purified kinases [5]; 10 nM compound): 1
- CDK2/cyclin E1 (LanthaScreen Binding) (476 purified kinases [5]; 10 nM compound): 0
- CDK2/cyclin O (LanthaScreen Binding) (476 purified kinases [5]; 10 nM compound): 5
- CDK2/cyclin A1 (LanthaScreen Binding) (476 purified kinases [5]; 10 nM compound + 10 µM FKBP12): 1
- CDK2/cyclin E1 (LanthaScreen Binding) (476 purified kinases [5]; 10 nM compound + 10 µM FKBP12): -7
- CDK2/cyclin O (LanthaScreen Binding) (476 purified kinases [5]; 10 nM compound + 10 µM FKBP12): 12
- CDK2/cyclin A (kinase profiling) (476 purified kinases [5]; 10 nM): 3
- CDK2/cyclin A (kinase profiling) (476 purified kinases [5]; 10 nM + 10 µM FKBP12): 6
- ADRBK1 (GRK2) (kinase profiling) (476 purified kinases [6]; 10 nM): 2
- ADRBK1 (GRK2) (kinase profiling) (476 purified kinases [6]; 10 nM + 10 µM FKBP12): 3
- MAP2K4 (MEK4) (LanthaScreen Binding) (476 purified kinases [7]; 10 nM compound): -1
- MAP2K4 (MEK4) (LanthaScreen Binding) (476 purified kinases [7]; 10 nM compound + 10 µM FKBP12): -2
- IRAK1 (kinase profiling) (476 purified kinases [8]; 10 nM): 15
- IRAK1 (kinase profiling) (476 purified kinases [8]; 10 nM + 10 µM FKBP12): -4
- MAP2K6 (MKK6) (LanthaScreen Binding) (476 purified kinases [9]; 10 nM compound): -3
- MAP2K6 (MKK6) (LanthaScreen Binding) (476 purified kinases [9]; 10 nM compound + 10 µM FKBP12): 8
- MAP2K6 (MKK6) (kinase profiling) (476 purified kinases [9]; 10 nM): 9
- MAP2K6 (MKK6) (kinase profiling) (476 purified kinases [9]; 10 nM + 10 µM FKBP12): 8
- MAP2K6 (MKK6) S207E T211E (LanthaScreen Binding) (476 purified kinases [10]; 10 nM compound): -2
- MAP2K6 (MKK6) S207E T211E (LanthaScreen Binding) (476 purified kinases [10]; 10 nM compound + 10 µM FKBP12): 2
- HUNK (LanthaScreen Binding) (476 purified kinases [11]; 10 nM compound): 0
- HUNK (LanthaScreen Binding) (476 purified kinases [11]; 10 nM compound + 10 µM FKBP12): 5
- CDK6/cyclin D1 (kinase profiling) (476 purified kinases [12]; 10 nM): 11
- CDK6/cyclin D1 (kinase profiling) (476 purified kinases [12]; 10 nM + 10 µM FKBP12): -10
- MAPK7 (ERK5) (kinase profiling) (476 purified kinases [13]; 10 nM): 5
- MAPK7 (ERK5) (kinase profiling) (476 purified kinases [13]; 10 nM + 10 µM FKBP12): 5
- CAMK2B (CaMKII beta) (kinase profiling) (476 purified kinases [14]; 10 nM): 7
- CAMK2B (CaMKII beta) (kinase profiling) (476 purified kinases [14]; 10 nM + 10 µM FKBP12): 7
- CAMK2G (CaMKII gamma) (LanthaScreen Binding) (476 purified kinases [15]; 10 nM compound): -2
- CAMK2G (CaMKII gamma) (LanthaScreen Binding) (476 purified kinases [15]; 10 nM compound + 10 µM FKBP12): 5
- CAMK1 (CaMK1) (kinase profiling) (476 purified kinases [16]; 10 nM): -14
- CAMK1 (CaMK1) (kinase profiling) (476 purified kinases [16]; 10 nM + 10 µM FKBP12): 28
- SBK1 (kinase profiling) (476 purified kinases [17]; 10 nM): 3
- SBK1 (kinase profiling) (476 purified kinases [17]; 10 nM + 10 µM FKBP12): 10
- CDC42 BPG (MRCKG) (kinase profiling) (476 purified kinases [18]; 10 nM): 7
- CDC42 BPG (MRCKG) (kinase profiling) (476 purified kinases [18]; 10 nM + 10 µM FKBP12): -1
- TAOK1 (LanthaScreen Binding) (476 purified kinases [19]; 10 nM compound): -5
- TAOK1 (LanthaScreen Binding) (476 purified kinases [19]; 10 nM compound + 10 µM FKBP12): 1
- ADCK3 (LanthaScreen Binding) (476 purified kinases [20]; 10 nM compound): -1
- ADCK3 (LanthaScreen Binding) (476 purified kinases [20]; 10 nM compound + 10 µM FKBP12): 16
- GRK7 (kinase profiling) (476 purified kinases [21]; 10 nM): 3
- GRK7 (kinase profiling) (476 purified kinases [21]; 10 nM + 10 µM FKBP12): -1
- CAMK1G (CAMKI gamma) (kinase profiling) (476 purified kinases [22]; 10 nM): 1
- CAMK1G (CAMKI gamma) (kinase profiling) (476 purified kinases [22]; 10 nM + 10 µM FKBP12): -5
- MAP3K3 (MEKK3) (LanthaScreen Binding) (476 purified kinases [23]; 10 nM compound): 1
- MAP3K3 (MEKK3) (LanthaScreen Binding) (476 purified kinases [23]; 10 nM compound + 10 µM FKBP12): 3
- NUAK2 (LanthaScreen Binding) (476 purified kinases [24]; 10 nM compound): 7
- NUAK2 (LanthaScreen Binding) (476 purified kinases [24]; 10 nM compound + 10 µM FKBP12): 0
- DYRK4 (kinase profiling) (476 purified kinases [25]; 10 nM): 1
- DYRK4 (kinase profiling) (476 purified kinases [25]; 10 nM + 10 µM FKBP12): 7
- STK32B (YANK2) (LanthaScreen Binding) (476 purified kinases [26]; 10 nM compound): -5
- STK32B (YANK2) (LanthaScreen Binding) (476 purified kinases [26]; 10 nM compound + 10 µM FKBP12): -1
- STK17A (DRAK1) (LanthaScreen Binding) (476 purified kinases [27]; 10 nM compound): 3
- STK17A (DRAK1) (LanthaScreen Binding) (476 purified kinases [27]; 10 nM compound + 10 µM FKBP12): 8
- STK39 (STLK3) (LanthaScreen Binding) (476 purified kinases [28]; 10 nM compound): 4
- STK39 (STLK3) (LanthaScreen Binding) (476 purified kinases [28]; 10 nM compound + 10 µM FKBP12): -5
- WNK2 (LanthaScreen Binding) (476 purified kinases [29]; 10 nM compound): 0
- WNK2 (LanthaScreen Binding) (476 purified kinases [29]; 10 nM compound + 10 µM FKBP12): -1
- STK24 (MST3) (kinase profiling) (476 purified kinases [30]; 10 nM): 13
- STK24 (MST3) (kinase profiling) (476 purified kinases [30]; 10 nM + 10 µM FKBP12): 20
